{
  "source": "PubChem BioAssay AID2060626",
  "about": "(Molecular Pharmacology Branch, DTP, NCI, 2025)",
  "data": [
    {"tested_on": "168753-222-R-J1-PDC complex spheroid viability", "assay": "Anticancer human tumor 168753-222-R-J1-PDC patient-derived bladder carcinoma cell line growth inhibition [CLK]", "conditions": "second compound 1 µM; first compound 0.316 µM; hits give low values", "outline": "(§1)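 Multi-cell-type spheroids combined patient-derived tumor cells with HUVEC endothelial cells and human mesenchymal stem cells. Paired agents were dosed in half-log steps down from about clinical Cmax, or from 10 microM where Cmax was unknown.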", "units": {"viability, T/C": "%"}, "values": [
      {"smiles": "COc1cccc2c1C(=O)c1c(O)c3c(c(O)c1C2=O)CC(O)(C(=O)CO)CC3OC1CC(N)C(O)C(C)O1", "note": "(stereo unspecified) + CN1CCN(c2cc(C(=O)Nc3cc4cc(-c5cnn(C)c5)ccc4cn3)ccn2)CC1", "viability, T/C": 0.17},
      {"smiles": "C=CC(=O)N1CCN(c2nc(=O)n(-c3c(C)ccnc3C(C)C)c3nc(-c4c(O)cccc4F)c(F)cc23)C(C)C1", "note": "(stereo unspecified) + CNC(=O)c1ccc(Nc2nc(OC3CCCC3)c3c(-c4ccc5nc(C)oc5c4)c[nH]c3n2)c(OC)c1", "viability, T/C": 45.4},
      {"smiles": "CCCS(=O)(=O)Nc1ccc(F)c(C(=O)c2c[nH]c3ncc(-c4ccc(Cl)cc4)cc23)c1F", "note": "+ CNC(=O)c1ccc(Nc2nc(OC3CCCC3)c3c(-c4ccc5nc(C)oc5c4)c[nH]c3n2)c(OC)c1", "viability, T/C": 46.9},
      {"smiles": "COC1C=CCC(C)C(C)S(=O)(=O)NC(=O)c2ccc3c(c2)N(CC2CCC21)CC1(CCCc2cc(Cl)ccc21)CO3", "note": "(stereo unspecified) + CNC(=O)c1ccc(Nc2nc(OC3CCCC3)c3c(-c4ccc5nc(C)oc5c4)c[nH]c3n2)c(OC)c1", "viability, T/C": 15.8}
    ]},
    {"tested_on": "168753-222-R-J1-PDC complex spheroid viability", "assay": "Anticancer human tumor 168753-222-R-J1-PDC cell line growth inhibition [CLK];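 note: luminescence signal used as surrogate for viable cell amount; viability measured after seven days of drug exposure; 100% = DMSO vehicle control wells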", "conditions": "second compound 1 µM; first compound 1 µM; hits give low values", "outline": "as §1", "units": {"viability, T/C": "%"}, "values": [
      {"smiles": "COc1ccc([C@@H](O)c2cc(-c3ncnc4cc(N5CCOCC5)ccc34)c(F)cc2Cl)nn1", "note": "+ CN1CCN(c2cc(C(=O)Nc3cc4cc(-c5cnn(C)c5)ccc4cn3)ccn2)CC1", "viability, T/C": 0.07},
      {"smiles": "COc1cccc2c1C(=O)c1c(O)c3c(c(O)c1C2=O)CC(O)(C(=O)CO)CC3OC1CC(N)C(O)C(C)O1", "note": "(stereo unspecified) + CN1CCN(c2cc(C(=O)Nc3cc4cc(-c5cnn(C)c5)ccc4cn3)ccn2)CC1", "viability, T/C": 0.05},
      {"smiles": "C=CC(=O)N1CCN(c2nc(=O)n(-c3c(C)ccnc3C(C)C)c3nc(-c4c(O)cccc4F)c(F)cc23)C(C)C1", "note": "(stereo unspecified) + CNC(=O)c1ccc(Nc2nc(OC3CCCC3)c3c(-c4ccc5nc(C)oc5c4)c[nH]c3n2)c(OC)c1", "viability, T/C": 47.8},
      {"smiles": "CCCS(=O)(=O)Nc1ccc(F)c(C(=O)c2c[nH]c3ncc(-c4ccc(Cl)cc4)cc23)c1F", "note": "+ CNC(=O)c1ccc(Nc2nc(OC3CCCC3)c3c(-c4ccc5nc(C)oc5c4)c[nH]c3n2)c(OC)c1", "viability, T/C": 57.2},
      {"smiles": "COC1C=CCC(C)C(C)S(=O)(=O)NC(=O)c2ccc3c(c2)N(CC2CCC21)CC1(CCCc2cc(Cl)ccc21)CO3", "note": "(stereo unspecified) + CNC(=O)c1ccc(Nc2nc(OC3CCCC3)c3c(-c4ccc5nc(C)oc5c4)c[nH]c3n2)c(OC)c1", "viability, T/C": 13.6}
    ]},
    {"tested_on": "168753-222-R-J1-PDC complex spheroid viability", "assay": "Anticancer human tumor 168753-222-R-J1-PDC cell line growth inhibition [CLK];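 note: luminescence signal used as surrogate for viable cell amount; viability measured after seven days of drug exposure; 100% = DMSO vehicle control wells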", "conditions": "second compound 1 µM; first compound 3.16 µM; hits give low values", "outline": "as §1", "units": {"viability, T/C": "%"}, "values": [
      {"smiles": "COc1ccc([C@@H](O)c2cc(-c3ncnc4cc(N5CCOCC5)ccc34)c(F)cc2Cl)nn1", "note": "+ CN1CCN(c2cc(C(=O)Nc3cc4cc(-c5cnn(C)c5)ccc4cn3)ccn2)CC1", "viability, T/C": 0.79},
      {"smiles": "COc1cccc2c1C(=O)c1c(O)c3c(c(O)c1C2=O)CC(O)(C(=O)CO)CC3OC1CC(N)C(O)C(C)O1", "note": "(stereo unspecified) + CN1CCN(c2cc(C(=O)Nc3cc4cc(-c5cnn(C)c5)ccc4cn3)ccn2)CC1", "viability, T/C": 0.48},
      {"smiles": "C=CC(=O)N1CCN(c2nc(=O)n(-c3c(C)ccnc3C(C)C)c3nc(-c4c(O)cccc4F)c(F)cc23)C(C)C1", "note": "(stereo unspecified) + CNC(=O)c1ccc(Nc2nc(OC3CCCC3)c3c(-c4ccc5nc(C)oc5c4)c[nH]c3n2)c(OC)c1", "viability, T/C": 41.4},
      {"smiles": "CCCS(=O)(=O)Nc1ccc(F)c(C(=O)c2c[nH]c3ncc(-c4ccc(Cl)cc4)cc23)c1F", "note": "+ CNC(=O)c1ccc(Nc2nc(OC3CCCC3)c3c(-c4ccc5nc(C)oc5c4)c[nH]c3n2)c(OC)c1", "viability, T/C": 64},
      {"smiles": "COC1C=CCC(C)C(C)S(=O)(=O)NC(=O)c2ccc3c(c2)N(CC2CCC21)CC1(CCCc2cc(Cl)ccc21)CO3", "note": "(stereo unspecified) + CNC(=O)c1ccc(Nc2nc(OC3CCCC3)c3c(-c4ccc5nc(C)oc5c4)c[nH]c3n2)c(OC)c1", "viability, T/C": 14.9}
    ]},
    {"tested_on": "168753-222-R-J1-PDC complex spheroid viability", "assay": "Anticancer human tumor 168753-222-R-J1-PDC cell line growth inhibition [CLK];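 note: luminescence signal used as surrogate for viable cell amount; viability measured after seven days of drug exposure; 100% = DMSO vehicle control wells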", "conditions": "second compound 1 µM; first compound 10 µM; hits give low values", "outline": "as §1", "units": {"viability, T/C": "%"}, "values": [
      {"smiles": "COc1ccc([C@@H](O)c2cc(-c3ncnc4cc(N5CCOCC5)ccc34)c(F)cc2Cl)nn1", "note": "+ CN1CCN(c2cc(C(=O)Nc3cc4cc(-c5cnn(C)c5)ccc4cn3)ccn2)CC1", "viability, T/C": 0.13},
      {"smiles": "COc1cccc2c1C(=O)c1c(O)c3c(c(O)c1C2=O)CC(O)(C(=O)CO)CC3OC1CC(N)C(O)C(C)O1", "note": "(stereo unspecified) + CN1CCN(c2cc(C(=O)Nc3cc4cc(-c5cnn(C)c5)ccc4cn3)ccn2)CC1", "viability, T/C": 1.29},
      {"smiles": "C=CC(=O)N1CCN(c2nc(=O)n(-c3c(C)ccnc3C(C)C)c3nc(-c4c(O)cccc4F)c(F)cc23)C(C)C1", "note": "(stereo unspecified) + CNC(=O)c1ccc(Nc2nc(OC3CCCC3)c3c(-c4ccc5nc(C)oc5c4)c[nH]c3n2)c(OC)c1", "viability, T/C": 30.9},
      {"smiles": "CCCS(=O)(=O)Nc1ccc(F)c(C(=O)c2c[nH]c3ncc(-c4ccc(Cl)cc4)cc23)c1F", "note": "+ CNC(=O)c1ccc(Nc2nc(OC3CCCC3)c3c(-c4ccc5nc(C)oc5c4)c[nH]c3n2)c(OC)c1", "viability, T/C": 28.6},
      {"smiles": "COC1C=CCC(C)C(C)S(=O)(=O)NC(=O)c2ccc3c(c2)N(CC2CCC21)CC1(CCCc2cc(Cl)ccc21)CO3", "note": "(stereo unspecified) + CNC(=O)c1ccc(Nc2nc(OC3CCCC3)c3c(-c4ccc5nc(C)oc5c4)c[nH]c3n2)c(OC)c1", "viability, T/C": 9.33}
    ]},
    {"tested_on": "168753-222-R-J1-PDC complex spheroid viability", "assay": "Anticancer human tumor 168753-222-R-J1-PDC cell line growth inhibition [CLK];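 note: luminescence signal used as surrogate for viable cell amount; viability measured after seven days of drug exposure; 100% = DMSO vehicle control wells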", "conditions": "second compound 3.16 µM; first compound 0.0316 µM; hits give low values", "outline": "as §1", "units": {"viability, T/C": "%"}, "values": [
      {"smiles": "COc1ccc([C@@H](O)c2cc(-c3ncnc4cc(N5CCOCC5)ccc34)c(F)cc2Cl)nn1", "note": "+ CN1CCN(c2cc(C(=O)Nc3cc4cc(-c5cnn(C)c5)ccc4cn3)ccn2)CC1", "viability, T/C": 0.05},
      {"smiles": "COc1cccc2c1C(=O)c1c(O)c3c(c(O)c1C2=O)CC(O)(C(=O)CO)CC3OC1CC(N)C(O)C(C)O1", "note": "(stereo unspecified) + CN1CCN(c2cc(C(=O)Nc3cc4cc(-c5cnn(C)c5)ccc4cn3)ccn2)CC1", "viability, T/C": 1.25},
      {"smiles": "C=CC(=O)N1CCN(c2nc(=O)n(-c3c(C)ccnc3C(C)C)c3nc(-c4c(O)cccc4F)c(F)cc23)C(C)C1", "note": "(stereo unspecified) + CNC(=O)c1ccc(Nc2nc(OC3CCCC3)c3c(-c4ccc5nc(C)oc5c4)c[nH]c3n2)c(OC)c1", "viability, T/C": 23.3},
      {"smiles": "CCCS(=O)(=O)Nc1ccc(F)c(C(=O)c2c[nH]c3ncc(-c4ccc(Cl)cc4)cc23)c1F", "note": "+ CNC(=O)c1ccc(Nc2nc(OC3CCCC3)c3c(-c4ccc5nc(C)oc5c4)c[nH]c3n2)c(OC)c1", "viability, T/C": 25.1},
      {"smiles": "COC1C=CCC(C)C(C)S(=O)(=O)NC(=O)c2ccc3c(c2)N(CC2CCC21)CC1(CCCc2cc(Cl)ccc21)CO3", "note": "(stereo unspecified) + CNC(=O)c1ccc(Nc2nc(OC3CCCC3)c3c(-c4ccc5nc(C)oc5c4)c[nH]c3n2)c(OC)c1", "viability, T/C": 20.9}
    ]},
    {"tested_on": "168753-222-R-J1-PDC complex spheroid viability", "assay": "Anticancer human tumor 168753-222-R-J1-PDC cell line growth inhibition [CLK]", "conditions": "second compound 3.16 µM; first compound 0.1 µM; hits give low values", "outline": "as §1", "units": {"viability, T/C": "%"}, "values": [
      {"smiles": "COc1ccc([C@@H](O)c2cc(-c3ncnc4cc(N5CCOCC5)ccc34)c(F)cc2Cl)nn1", "note": "+ CN1CCN(c2cc(C(=O)Nc3cc4cc(-c5cnn(C)c5)ccc4cn3)ccn2)CC1", "viability, T/C": 0.08},
      {"smiles": "COc1cccc2c1C(=O)c1c(O)c3c(c(O)c1C2=O)CC(O)(C(=O)CO)CC3OC1CC(N)C(O)C(C)O1", "note": "(stereo unspecified) + CN1CCN(c2cc(C(=O)Nc3cc4cc(-c5cnn(C)c5)ccc4cn3)ccn2)CC1", "viability, T/C": 0.09}
    ]}
  ]
}
